Key:
[1] = system: naïve rats; experiment: Open field chamber testing; assay type: in vivo, rat; conditions: i.p.: Example 3 15 mg/kg, WIN 55,212-2 7 mg/kg, haloperidol 1 mg/kg
Description: The automated open-field chamber (Med Associates ENV-515 Test Environment, St. Albans, Vt.) 43.2×43.2×30.5 cm (L×W×H) equipped with three pairs of 16 infrared arrays that continually monitored the animal's movement was used to determine potential CNS effects of the compound of Example 3, WIN55212-2, and haloperidol in naïve rats. Rats were individually tested 15 min after i.p. drug administration. The infrared beams were set 2.5 cm apart horizontally and at a height of 3 cm above the floor, with the rearing array set at 12 cm from the floor. The area in the box was divided into 4 equal quadrants (zones), with data collected within each quadrant and across quadrants (zone entries). An ambulatory movement was defined as a motion of at least 5 cm and was coded by quadrant. Vertical movements were counted when the rat moved vertically a minimum of 12 cm from the floor. Zone entries were defined as an entry into a zone (from another zone). Entry into a zone was counted when the rat was far enough into the zone to break 2 sets of photoelectric beams for the new zone beams during an ambulatory movement.

[2] = biological target: CB1 (Homo sapiens (Human), UniProt P21554); experiment: CB1/CB2 Functional Assay (GTPγ[35S]), CB1 membranes; assay type: biochemical
Description: (§1) A dose response curve was generated at eight concentrations in duplicate on CB1 and CB2 in light of reference agonists. The reference agonists for cannabinoid receptors was CP55,940. See FIGS. 1A, 1B, 2A, 2B, 3A and 3B.
(§2) Membranes (CB1, ES-110-MG or CB2, ES-111-MG) were mixed with GDP (volume:volume) and incubated for at least 15 min on ice. In parallel, GTPγ[^35S] were mixed with the beads (volume:volume) just before starting the reaction. The following reagents were successively added in the wells of an Optiplate: 50 μl of ligand, 20 μl of the membranes:GDP mix, 10 μl of assay buffer for agonist testing and 20 μl of the GTPγ[^35S]: beads mix. The plates were covered with a topseal, shaken on an orbital shaker for 2 min, and then incubated between 30 to 60 min. at room temperature. Then the plates were centrifuged for 10 min at 2000 rpm, incubated at room temperature between 1 to 4 hours and counted for 1 min with a PerkinElmer TopCount reader.

[3] = system: naïve rats; experiment: Thermal paw withdrawal latency in naïve rats; assay type: in vivo, rat
Description: To determine sensitivity to noxious heat, rats were placed in plexiglass enclosures on a transparent glass surface maintained at 30° C. and allowed to acclimate for 30 min. A thermal testing apparatus, consisting of a heat-emitting projector lamp and an electronic timer, was used. The device was activated after the lamp is placed directly beneath the planter surface of the hindpaw. The paw withdrawal latency in response to the radiant heat was recorded by a digital timer. A cutoff of 30 s was used to prevent potential tissue damage. After the baseline was measured, three groups of naïve rats (n=10) received 1.0, 3.0, or 10 mg/kg of the compound of Example 3 i.p. Response latencies were determined twice for each rat before drug injection and at 5, 10, 15, 30, 45, 60, 90 and 120 min after IP injection. The percent maximal possible effect (% MPE) was calculated as ([postdrug latency−baseline latency]/[cutoff time (30 s)−baseline latency])×100.

[4] = biological target: hCB1 (human CB1) receptors (Homo sapiens (Human), UniProt P21554); experiment: GTPγ[35S] functional assay, CHO membrane extracts hCB1; assay type: biochemical
Description: Functional activity was evaluated using GTPγ[^35S] assay in CHO membrane extracts expressing recombinant hCB1 (human CB1) receptors or hCB2 (human CB2) receptors. The assay relies on the binding of GTPγ[^35S], a radiolabeled nonhydrolyzable GTP analogue, to the G protein upon binding of an agonist of the G-protein-coupled receptor. In this system, agonists stimulate GTPγ[^35S] binding whereas neutral antagonist have no effect and inverse agonists decrease GTPγ[^35S] basal binding.
The compound of Example 3 was solubilized in 100% DMSO at a concentration of 10 mM within 4 hours of the first testing session (master solution). A predilution for the dose response curve was performed in 100% DMSO and then diluted 100 fold in assay buffer at a concentration 2 fold higher than the concentration to be tested. […] For GTPγS membranes were mixed with GDP diluted in assay buffer to give 30 μM solution (volume:volume) and incubated for at least […] on ice. In parallel, GTPγ[^35S] (GE Healthcare, Catalogue number SJ1308) were mixed with the beads (PVT-WGA (GE Healthcare, RPNQ001)), diluted in assay buffer at 50 mg/ml (0.5 mg/10 μl) (volume:volume) just before starting the reaction. […] Then the plates were centrifuged for 10 min at 2000 rpm and counted for 1 min/well with a PerkinElmer TopCount reader. […]

[5] = biological target: T1, CB2 (Homo sapiens (Human), UniProt P34972); experiment: CB2 Binding Assay ([3H]WIN 55212-2, cell membrane homogenates)
Description: Cell membrane homogenates (15 μg protein) were incubated for 120 min at 37° C. with 0.8 nM [3H]WIN 55212-2 (the reference standard [Munro, 1993 #1321]) in the absence or presence of the test compound in a buffer containing 50 mM HEPES/Tris HCL (pH 7.4), 5 mM MgCl2, 2.5 mM EGTA, and 0.1% BSA. Nonspecific binding was determined in the presence of 10 μM WIN 55212-2. After being incubated, the samples were filtered rapidly under vacuum through glass fiber filters (GF/B; Packard) presoaked with 0.3% PEI and rinsed several times with ice-cold buffer containing 50 mM Tris HCl (pH 7.4) and 0.5% BSA using a 96-sample cell harvester (Unifilter; Packard). The filters were dried then counted for radioactivity in a scintillation counter (Topcount; Packard) using a scintillation cocktail (Microscint 0; Packard). The results were expressed as a percentage of the inhibition of the control radioligand-specific binding. The reference standard compounds were tested in each experiment at several concentrations to obtain a competition curve from which its IC50 was calculated.

[6] = biological target: T1, CB2; experiment: CB1/CB2 Functional Assay (GTPγ[35S]), CB2 membranes; assay type: biochemical
Description: as §1, §2

[7] = CB2, test concentration 1.0E−05 (MD)

T1 sequence (P34972 whole entry): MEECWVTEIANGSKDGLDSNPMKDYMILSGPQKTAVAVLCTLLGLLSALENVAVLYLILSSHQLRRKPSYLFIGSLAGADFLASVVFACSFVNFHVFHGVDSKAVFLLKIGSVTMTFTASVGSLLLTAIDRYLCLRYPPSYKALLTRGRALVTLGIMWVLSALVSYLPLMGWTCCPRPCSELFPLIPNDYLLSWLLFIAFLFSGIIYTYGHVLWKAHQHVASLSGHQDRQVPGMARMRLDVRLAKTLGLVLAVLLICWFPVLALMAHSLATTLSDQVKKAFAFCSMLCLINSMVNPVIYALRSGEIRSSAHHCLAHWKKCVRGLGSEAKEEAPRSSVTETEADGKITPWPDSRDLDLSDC
Chain of CB1 (P21554 whole entry): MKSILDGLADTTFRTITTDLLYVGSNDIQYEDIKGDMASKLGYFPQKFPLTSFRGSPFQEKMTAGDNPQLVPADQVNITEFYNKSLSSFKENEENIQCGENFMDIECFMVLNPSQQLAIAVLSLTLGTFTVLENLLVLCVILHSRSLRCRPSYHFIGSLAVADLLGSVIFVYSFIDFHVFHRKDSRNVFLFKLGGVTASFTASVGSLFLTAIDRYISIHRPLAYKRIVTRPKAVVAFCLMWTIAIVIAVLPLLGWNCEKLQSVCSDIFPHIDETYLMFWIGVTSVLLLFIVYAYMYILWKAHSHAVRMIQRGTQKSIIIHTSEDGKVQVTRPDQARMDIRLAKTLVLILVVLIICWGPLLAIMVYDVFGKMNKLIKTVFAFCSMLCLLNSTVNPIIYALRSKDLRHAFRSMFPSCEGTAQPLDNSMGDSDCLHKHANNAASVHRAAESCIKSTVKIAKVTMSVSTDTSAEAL

In the case of `CC1(Cc2ccccc2)COc2cc(C(=O)N3CCCCC3)ccc21` (stereo not drawn) [Example 3, 3-benzyl-3-methyl-2,3-dihydrobenzofuran-6-carboxylic acid-piperidine amide], the “exploratory behavior in the open field (distance traveled, ambulatory time, rearing, zone entries)” value [1] is reported as “absence of psychoactive cannabinoid effect”, the “Compound Function” value [2] is reported as “Agonist” and the “% Activation Average” value ([2]; reference agonist CP55,940) is reported as 22.85%. The “nociceptive effect of a thermal stimulus applied to hind paws” value ([3]; 1 mg/kg or 3 mg/kg i.p.) was “did not block”, the “nociceptive effect of a thermal stimulus applied to hind paws” value ([3]; 10 mg/kg i.p.) was “short-lasting antinociceptive effect” and the “agonistic or antagonistic activities at hCB1 receptors” value [4] was “did not result in any agonistic or antagonistic activities”. The EC50 ([4]; read-out: Agonist EC50 (mean ± s.e. mean) GTPγ[35S] functional assays hCB1) was greater than 10 µM, the “% Inhibition of Control Specific Binding” value [5, 7] was 91% and the “% of Control Specific Binding Mean” value [5, 7] was 9.4%. The “% of Control Specific Binding 1st” value ([5]; CB2, test concentration 1.0E−05 (MD), first replicate) was 13%, the “% of Control Specific Binding 2nd” value ([5]; CB2, test concentration 1.0E−05 (MD), second replicate) was 5.8% and the “% Inhibition of Control Specific Binding CB2” value ([5]; as repeated in Table 4) was 91%. For the same compound, the “Compound Function” value [6] was “Agonist”, the EC50 ([6]; read-out: EC50 (nM) for GTP Binding) was 160 nM and the “% Activation Average” value ([6]; reference agonist CP55,940) was 87.2%.
